Assay results published in PMC6032053, “Design, Synthesis, Cytotoxic Evaluation and Molecular Docking of New Fluoroquinazolinones as Potent Anticancer Agents with Dual EGFR Kinase and Tubulin Polymerization Inhibitory Effects” (International Journal of Molecular Sciences, 2018).
“Also recorded” adds a separate entry of the source.

Assays:
[1] = test system: MDA-MBA-231; experiment: In vitro cytotoxic screening (MTT assay), MDA-MBA-231; type: cell-based, human; conditions: mean ± SD; for IC50: 24 h, MTT assay, MDA-MBA-231 cell line; for Selectivity index S1: S1 = IC50 (MCF-7)/IC50 (MDA-MBA-231)
Procedure: (§1) Cell lines were obtained from American Type Culture Collection, cells were cultured using DMEM (Invitrogen Life Technologies, Waltham, MA, USA) supplemented with 10% FBS (Hyclone, Logan, UT, USA), 10 µg/mL of insulin (Sigma, St. Louis, MO, USA), and 1% penicillin-streptomycin. […] At the end of the incubation, the cells were harvested and washed with PBS. 20 µL of MTT was added to each well and incubated for 2 h before 200 µL DMSO was added. The absorbance was measured on an ELISA reader (Multiskan EX, Lab systems, Waltham, MA, USA) at wavelength of 570 nm.
(§2) All assays were performed in triplicate. The results were expressed as mean ± SD (standard deviation) using Student’s t test.

[2] = test system: MCF-7; experiment: In vitro cytotoxic screening (MTT assay), MCF-7; type: cell-based, human; conditions: for IC50: Homo sapiens, MCF7, MTT assay, 24 h, MCF-7 cell line; for IC50 / Selectivity index S2: mean ± SD; for Cell line selectivity: S1 > S2: more selective to MDA-MBA-231, S2 > S1: more selective to MCF-7; for Selectivity index S2: S2 = IC50 (MDA-MBA-231)/IC50 (MCF-7)
Procedure: as §1, §2

[3] = target: EGFR-TK (Homo sapiens, UniProt P00533); experiment: EGFR inhibition assay (HT Scan EGFR kinase assay kit)
EGFR-TK, sequence (P00533 25-1210): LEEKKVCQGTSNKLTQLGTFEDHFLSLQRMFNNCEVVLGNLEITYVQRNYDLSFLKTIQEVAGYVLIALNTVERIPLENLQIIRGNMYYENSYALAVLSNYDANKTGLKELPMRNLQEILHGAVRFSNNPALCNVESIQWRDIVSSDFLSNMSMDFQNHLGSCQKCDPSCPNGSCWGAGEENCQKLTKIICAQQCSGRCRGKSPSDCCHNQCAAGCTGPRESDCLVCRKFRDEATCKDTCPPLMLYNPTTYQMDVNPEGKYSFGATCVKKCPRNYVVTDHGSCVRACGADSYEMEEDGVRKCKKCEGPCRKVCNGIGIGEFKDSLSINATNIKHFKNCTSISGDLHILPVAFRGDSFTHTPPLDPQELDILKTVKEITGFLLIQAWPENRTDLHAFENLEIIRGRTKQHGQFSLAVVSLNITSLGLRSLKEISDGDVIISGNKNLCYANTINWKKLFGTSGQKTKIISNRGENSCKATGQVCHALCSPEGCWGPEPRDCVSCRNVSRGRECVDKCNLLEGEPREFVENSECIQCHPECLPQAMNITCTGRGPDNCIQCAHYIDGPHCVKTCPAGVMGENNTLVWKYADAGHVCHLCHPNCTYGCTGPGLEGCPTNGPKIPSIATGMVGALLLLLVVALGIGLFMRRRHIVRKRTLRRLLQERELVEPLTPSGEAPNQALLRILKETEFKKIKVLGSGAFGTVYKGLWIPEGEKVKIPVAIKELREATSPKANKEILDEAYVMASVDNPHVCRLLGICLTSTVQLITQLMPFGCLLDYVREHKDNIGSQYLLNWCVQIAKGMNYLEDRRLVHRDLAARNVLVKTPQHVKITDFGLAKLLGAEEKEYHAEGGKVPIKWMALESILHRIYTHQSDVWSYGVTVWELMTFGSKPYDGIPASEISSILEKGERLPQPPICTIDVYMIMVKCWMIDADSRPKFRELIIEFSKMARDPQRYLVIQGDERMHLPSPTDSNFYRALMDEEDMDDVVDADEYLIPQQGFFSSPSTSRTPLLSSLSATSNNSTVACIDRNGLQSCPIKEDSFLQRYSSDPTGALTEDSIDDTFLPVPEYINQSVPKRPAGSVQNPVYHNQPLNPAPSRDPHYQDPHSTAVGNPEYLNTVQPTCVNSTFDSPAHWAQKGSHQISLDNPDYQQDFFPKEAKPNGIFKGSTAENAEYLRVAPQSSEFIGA
Procedure: EGFR kinase activity was measured by HT Scan EGFR kinase assay kits (Cell Signaling Technology, Danvers, MA, USA). The experiments were performed following the manufacturer’s directions. […] Strapavidin-coated 96-well plates were used to take phosphorylated substrate. Anti-phosphotyrosine and europium-labeled secondary antibodies (DELFIA, Perkin-Elmer, Akron, OH, USA) were used to monitor the level of phosphorylation.

melting point [°C] | IC50 [3] [µM] | SMILES | IC50 ([1]; Homo sapiens) [µM] | Selectivity index S1 [1] | IC50 [2] [µM] | Cell line selectivity [2] | Selectivity index S2 [2] | IC50 [1] [µM]
220 to 222 | – | O=c1c2cc(F)ccc2nc(-c2ccc(F)cc2)n1N=CC=Cc1ccccc1 [Compound 8, 3-(3-Phenylallylideneamino)-6-fluoro-2-(4-fluorophenyl)quinazolin-4(3H)-one] | 21.6 ± 1.4 | 1.69 ± 0.15 | 36.6 ± 1.81 | more selective to MDA-MBA-231 than MCF-7; also recorded: MDA-MBA-231 selective | 0.59 ± 0.02 | –
235 to 237 | 0.17008 ± 2e-05 | O=c1c2cc(F)ccc2nc(-c2ccc(F)cc2)n1N=Cc1ccc([N+](=O)[O-])cc1 [Compound 10e, 3-(4-Nitrobenzylideneamino)-6-fluoro-2-(4-fluorophenyl)quinazolin-4(3H)-one] | – | 9.32 ± 0.08 | 2.61 ± 0.14 | more selective to MDA-MBA-231 than MCF-7; also recorded: MDA-MBA-231 selective | 0.11 ± 0.17 | –
231 to 233 | – | Cc1ccc(C=Nn2c(-c3ccc(F)cc3)nc3ccc(F)cc3c2=O)cc1 [Compound 10b, 3-(4-Methylbenzylideneamino)-6-fluoro-2-(4-fluorophenyl)quinazoline-4(3H)-one] | 3.09 ± 0.08 | 1.64 ± 0.21 | 5.07 ± 0.33 | more selective to MDA-MBA-231 than MCF-7; also recorded: MDA-MBA-231 selective | 0.61 ± 0.06 | –
229 to 231 | – | O=c1c2cc(F)ccc2nc(-c2ccc(F)cc2)n1N=Cc1ccc(O)cc1 [Compound 10g, 3-(4-Hydroxybenzylideneamino)-6-fluoro-2-(4-fluorophenyl) quinazolin-4(3H)-one] | 2.54 ± 0.23 | 0.52 ± 0.07 | 1.32 ± 0.08 | more selective to MCF-7 than MDA-MBA-231; also recorded: MCF-7 selective | 1.92 ± 0.05 | –
223 to 225 | 0.0752 ± 8e-05 | O=C1Nc2ccccc2/C1=N\n1c(-c2ccc(F)cc2)nc2ccc(F)cc2c1=O [Compound 6, 3-(3-Iminoindolin-2-one)-6-fluoro-2-(4-flurophenyl)quinazoline-4(3H)-one] | 1.38 ± 0.14 | 0.25 ± 0.06 | 0.35 ± 0.01 | more selective to MCF-7 than MDA-MBA-231; also recorded: MCF-7 selective | 3.94 ± 0.26 | –
224 to 226 | – | O=c1c2cc(F)ccc2nc(-c2ccc(F)cc2)n1N=Cc1ccc(Cl)cc1 [Compound 10f, 3-(4-Chlorobenzylideneamino)-6-fluoro-2-(4-fluorophenyl)quinazolin-4(3H)-one] | 3.76 ± 0.22 | 9.57 ± 0.22 | 0.71 ± 0.01 | more selective to MCF-7 than MDA-MBA-231; also recorded: MCF-7 selective | 5.29 ± 0.31 | –
218 to 220 | – | O=c1c2cc(F)ccc2nc(-c2ccc(F)cc2)n1N=Cc1ccccc1 [Compound 10a, 3-(Benzylideneamino)-6-fluoro-2-(4-fluorophenyl)quinazolin-4(3H)-one] | 2.48 ± 0.17 | 0.39 ± 0.01 | 0.95 ± 0.01 | more selective to MCF-7 than MDA-MBA-231; also recorded: MCF-7 selective | 2.61 ± 0.09 | –
228 to 230 | – | COc1ccc(C=Nn2c(-c3ccc(F)cc3)nc3ccc(F)cc3c2=O)cc1 [Compound 10c, 3-(4-Methoxybenzylideneamino)-6-fluoro-2-(4-fluorophenyl)quinazolin-4(3H)-one] | 1.09 ± 0.01 | 9.57 ± 0.11 | 10.4 ± 1.14 | more selective to MDA-MBA-231 than MCF-7; also recorded: MDA-MBA-231 selective | 0.10 ± 0.13 | –
228 to 230 | – | O=c1c2cc(F)ccc2nc(-c2ccc(F)cc2)n1N=Cc1ccco1 [Compound 7, 3-((Furan-2-yl)methyleneamino)-6-fluoro-2-(4-fluorophenyl)quinazolin-4(3H)-one] | 0.94 ± 0.07 | 1.13 ± 0.09 | 1.06 ± 0.03 | more selective to MDA-MBA-231 than MCF-7; also recorded: MDA-MBA-231 selective | 0.89 ± 0.18 | –
232 to 234 | – | O=c1c2cc(F)ccc2nc(-c2ccc(F)cc2)n1N=Cc1ccc(F)cc1 [Compound 10d, 3-(4-Fluorobenzylideneamino)-6-fluoro-2-(4-fluorophenyl)quinazolin-4(3H)-one] | 0.382 ± 0.01 | 2.34 ± 0.05 | 0.89 ± 0.02 | more selective to MDA-MBA-231 than MCF-7; also recorded: MDA-MBA-231 selective | 0.43 ± 0.09 | 0.38 ± 0.01
